Columns and labels:
[1] = Apparent pKa in LNPs by TNS titration; type: physicochemical; settings: lipid nanoparticles (LNPs)
Protocol: In the case of some lipids, the apparent pKa in LNPs was determined by using TNS titration based on the method described: Angew Chem Int Ed Engl. 2012, 51 (34), 8529-8533, doi: 10.1002/anie.201203263).

[2] = tested on: HeLa cells; experiment: Transfection efficiency with GFP mRNA (Method B); type: cell-based; settings: 24 h, GFP fluorescence
Protocol: The synthesized lipids were tested in term of in vitro transfection efficacy and toxicity on HeLa cells. In order to perform the mentioned biological tests, appropriate LNPs had to be formulated from the synthesized lipids. The formulation technique was different in Method A and B. The particle size, polydispersity index (PDI) and zeta potential of resulting LNPs were determined by means of Dynamic Light Scattering technique (DLS). Prior to biological testing the encapsulation efficiency (EE) of the loaded LNPs was determined by using RiboGreen RNA assay. In case of Method A Luc mRNA while in case of Method B GFP mRNA was transfected into the cells. In parallel with the transfection experiments, toxicity of the investigated LNPs was determined, in case of Method A resazurin assay while in case of Method B MTT assay was used. Additionally, the toxicity of the lipids was investigated on HepG2 cells and IC50 values were determined.
(§1) In 1.5 mL eppendorf: • a) Place 2.9 uL of 0.33 ug/uL mRNA solution into Eppendorf tube • b) Add 1.94 μL of supplied ethanolic solution of tested lipid and immediately mix by working pipette up-and-down several times (work the solution up and down several times before transferring to saturate pipette tip with ethanol vapors) • c) Incubate for 15 minutes. • d) Add 536 μL of MEM. Mix the solution by vortexing. • e) Incubate for 30 minutes.
• MEM (Sigma, cat #M5650-500 mL) • Fetal Bovine Serum, FBS (Sigma, cat #F7524-500 mL) • Solutions of the formulations (see above) • Dilutor: 10 mL MEM+0,036 mL ethanol • Phosphate buffered saline, PBS
• 1. Fill the edge wells of a 96-well plate with 100 μL media. • 2. Plate 10,000 HeLa cells per well in 96 well plate. […] Total 60 wells should be seeded. Incubate in MEM+10% FBS at 37° C. in a humidified atmosphere with 5% CO2 for 24 h. • 3. Examine under the microscope. Confluency must be at or nearly 80%. • 4. Gently remove the media (aspirate). Place 50 μL of the following formulations: • a) 6 wells with dilutor—negative control • b) 6 wells with Lipofectamine-50—positive control. • c) 6 wells with Lipofectamine-6—secondary positive control • d) 6 wells per formulations—test samples. • 5. Incubate plate for 1 hours at 37° C. • 6. Add 50 μL of MEM+20% FBS (which will become 10% upon dilution). • 7. Place plates into the incubator at 37° C. in a humidified atmosphere with 5% CO2 for 23 h (total 24 hours of incubation). • 8. After 24 h, aspirate the media without disturbing the cells. Gently wash cells with 100 μL of warm PBS. Aspirate PBS. • 9. Add 100 μL of fresh PBS into washed cells and read GFP fluorescence on the plate reader. • 10. This can be followed with viability assessment with the MTT assay. Cell Viability Assessment with MTT Assay (Method B)

[3] = LNP size and size distribution by Dynamic Light Scattering (Method B); type: physicochemical; settings: DLS; for Size (nm): Z-average
Protocol: • 0.33 ug/uL mRNA solution in DEPC-treated water (RiboPro, Off-The-Shelf mRNA; eGFP with Cap 1) • 0.04 ug/uL mRNA solution in DEPC-treated water (RiboPro, Off-The-Shelf mRNA; eGFP with Cap 1)
as §1
• a) Place 45 μL Lipofectamine-50 solution into 1.5 mL sterile Eppendorf tube. • b) Add 315 μL of MEM. Vortex. • c) Incubate 15 min. Size and Size Distribution Measurements with Dynamic Light Scattering • 1. Transfer 100 μL of freshly prepared LNP formulation in DLS micro cuvette. • 2. Place the formulation into Zetasizer pre-heated to 37 C. • 3. Equilibrate the sample for 5 minutes. • 4. Perform the size measurement in triplicate (settings: position and gain auto). • 5. For QC examine correlation curve to have no disturbances. Report Z-average and PDI based on cumulants fit. Transfection Efficiency with GFP mRNA (Method B)

CCCCC/C=C\C/C=C\CCCCCCCCOC(CCCCCCC/C=C\C/C=C\CCCCC)O[Si](C)(C)OCCCCCCN(CCO)CCO (stereo not shown) [Example 48, (23Z,26Z)-13-((8Z,11Z)-heptadeca-8,11-dien-1-yl)-3-(2-hydroxyethyl)-11,11-dimethyl-10,12,14-trioxa-3-aza-11-siladotriaconta-23,26-dien-1-ol]
pKa [1]: 7.73 | Transfection 89 ng mRNA/well [2]: 93448.3 | PDI [3]: 0.128 | Size (nm) [3]: 180 nm

CCCCC/C=C\C/C=C\CCCCCCCCOC(CCCCCCC/C=C\C/C=C\CCCCC)O[Si](C)(C)OCCCCCCN(C)CCO (stereo not shown) [Example 56, (23Z,26Z)-13-((8Z,11Z)-heptadeca-8,11-dien-1-yl)-3,11,11-trimethyl-10,12,14-trioxa-3-aza-11-siladotriaconta-23,26-dien-1-ol]
pKa [1]: 7.21 | Transfection 89 ng mRNA/well [2]: 78375.2 | PDI [3]: 0.092 | Size (nm) [3]: 185 nm

CCCCCCCCC(CCCCCC)C(=O)OCCCCCCN(CCCCO)CCCCCCOC(=O)C(CCCCCC)CCCCCCCC (stereo not shown) [ALC-0315, reference compound]
Transfection 89 ng mRNA/well [2]: 15892.1

CCCCC/C=C\C/C=C\CCCCCCCCOC(CCCCCCC/C=C\C/C=C\CCCCC)O[Si](C)(C)OCCCCCCN1CCN(CCO)CC1 (stereo not shown) [Example 58, 2-(4-((20Z,23Z)-10-((8Z,11Z)-heptadeca-8,11-dien-1-yl)-8,8-dimethyl-7,9,11-trioxa-8-silanonacosa-20,23-dien-1-yl)piperazin-1-yl)ethan-1-ol]
Transfection 89 ng mRNA/well [2]: 50019.2

Reference: US20260109721A1, “IONIZABLE CATIONIC LIPIDS INCORPORATING SILICON: SYNTHESIS AND LNP FORMULATION” (priority 2023, published 2026)
